Here are results for five compounds from patent US20180050994A1 (THE JOHNS HOPKINS UNIVERSITY, priority 2013, published 2018).

One data set concerns the target T1, hNav1.1 (Homo sapiens, UniProt P35498).
T1 construct: host or cells: Xenopus oocytes (cRNA injection)
The experiment in a line: Two-electrode voltage-clamp recording of hNav1.1 gating in Xenopus oocytes. The format is cell-based. The note with it: for effect on hNav1.1 persistent current / effect on hNav1.1 opening (G-V relationship): 100 μM; for effect on hNav1.1 persistent current: analyzed at the end of a 50 ms test pulse; for effect on hNav1.1 opening (G-V relationship): significance at p<0.005; for Activation (V1/2): hNav1.1 + β1 in Xenopus oocytes, ≤1% DMSO, DMSO control −38.2 ± 1.9 mV; for Activation (V1/2) / Inactivation (V1/2): 100 μM drug; for Inactivation (V1/2): hNav1.1, steady-state inactivation, DMSO control −49.4 ± 0.3 mV.

Data set [1] has as its system 6 Hz psychomotor seizures in male Crl:CF1 mice. The experiment in a line: 6 Hz psychomotor seizure induction. It is filed as in vivo, mouse. The settings on record: 17 mA. On the procedure: (§1) Animal husbandry and drug administration. Male Crl:CF1 mice (10-12 weeks old, Charles River) were housed under a 12 hour light-dark cycle with free access to food and water and all experiments were carried out between 10 am and 4 pm. 1-[phenyl-methyl]-1H-1,2,3-triazole-4-carboxamide-5-methyl (Compound B) (Sigma Aldrich) was suspended in a 40% solution of cyclodextrin (Sigma Aldrich) in sterile saline (0.9%) and 15 minutes prior to each seizure induction paradigm, 75 mg/kg of compound B was administered via intraperitoneal injection (ip) injection. Vehicle treated animals were similarly administrated 40% cyclodextrin and served as the controls for each experiment. The Emory University Institutional Animal Care and Use Committee approved all experimental protocols involving mice.
6 Hz psychomotor seizure induction. Topical anesthetic (0.5% tetracaine hydrochloride ophthalmic solution) was applied to the cornea 30 minutes before testing. Fifteen minutes prior to seizure induction, mice were administrated vehicle or compound B (n=12 per group). Each mouse was manually restrained and corneal stimulation (0.2 ms pulse, 6 Hz, 3s) was performed at a current intensity of 17 mA (ECT Unit 57800; Ugo Basile, Comerio Italy). […] The mice were randomized into two groups and in the first trial one group received the vehicle whereas the other was administered compound B. The second trial was performed one week later with each group receiving the opposite treatment.
(§2) Statistical analysis. A Student's t-test was used to identify statistically significant differences in latencies between vehicle- and compound B-treated groups for each seizure phenotype following administration of flurothyl and picrotoxin. […] All data are presented as the mean±s.e.m.; p values<0.05 were considered significant.

The next data set has as its target T2, α1/β2/γ2 GABAA receptor (Homo sapiens, UniProt P14867+P18507+P47870).
T2 construct: expressed in transfected cells; host or cells: oocytes
The experiment in a line: GABAA receptor activation in oocytes. The format is cell-based. The settings on record: 100 μM, oocytes at −70 mV; 5 μM muscimol as positive control. From the text: Oocytes were kept at −70 mV throughout the experiment.

A further data set addresses T3, hNav1.2 (Homo sapiens, UniProt Q99250).
T3 construct: host or cells: Xenopus oocytes (cRNA injection)
As to the kind of experiment: Two-electrode voltage-clamp recording of hNav1.2 gating in Xenopus oocytes. It is filed as cell-based. The settings on record: for Activation (V1/2): hNav1.2, 100 μM drug, DMSO control −31.7 ± 1.2 mV; for Inactivation (V1/2): hNav1.2, steady-state inactivation, 100 μM drug, DMSO control −59.7 ± 0.4 mV.

A further data set deals with rat hippocampal neurons. As to the kind of experiment: Action potential threshold recordings in hippocampal neurons. It is filed as cell-based. The settings on record: 100 μM Compound B. How it is done: Action potential threshold recordings in hippocampal neurons. Hippocampal neurons were dissected from Sprague Dawley rat embryos at embryonic day 18. Cells were treated with papain (Worthington Biochemical), dissociated with a pipette and plated over coverslips coated with collagen (Life Technologies) and poly-D-Lysine (Sigma-Aldrich). Astrocyte beds were prepared at a density of 80,000 cells/ml and cultured in DMEM (Life Technologies) with 10% Fetal Bovine Serum, 6 mM glutamine for 14 days in 5% CO2 at 37° C. Total medium was changed every week. Neurons were plated over confluent astrocyte beds at a density of 150,000 cells/ml and cultured for 3 weeks in Neurobasal media (Life Technologies) supplemented with B27 and 2 mM glutaMAX. Half of the media was changed every 3-4 days. Cells were treated for 3 hours with compound B in 0.3% DMSO or control (media containing 0.3% DMSO) before recording. Coverslips were transferred to a chamber perfused at 2 ml/minute at 32° C. with ACSF containing (in mM): 140 NaCl, 5 KCl, 2 CaCl2, 2 MgCl2, 10 HEPES, and 10 Glucose (pH 7.3 adjusted with NaOH). […] Action potential thresholds were measured by a series of 100 ms, 10 pA depolarizing current injections. At the minimal current injection needed to elicit an action potential, firing threshold was determined by calculating the potential at which the rate of rise crossed 40 V/s, using AxoGraph X software. […]

Data set [2] relates to flurothyl-induced seizures in male Crl:CF1 mice. The experiment in a line: Flurothyl seizure induction. The format is in vivo, mouse. The settings on record: 75 mg/kg ip. On the procedure:
as §1
Flurothyl Seizure induction. Latencies to flurothyl-induced seizures were determined as previously described (Neurobiol Dis 49C, 211-220 (2012)). Briefly, flurothyl (2,2,2-trifluroethylether; Sigma Aldrich) was dispensed at a rate of 20 μl/minute into a Plexiglas chamber and latencies to three behavioral phenotypes were compared between vehicle-treated and compound B-treated (75 mg/kg) mice (n=12 per group): 1) the first myoclonic jerk, 2) a generalized tonic-clonic seizure, and 3) a generalized tonic-clonic seizure with tonic extension. Similar to picrotoxin-mediated seizure induction, the myoclonic jerk is the first observable behavioral phenotype followed by the generalized tonic-clonic seizure which is characterized by a loss of postural control with rapid movement of all four limbs for at least 5s. Lastly, the generalized tonic-clonic seizure with tonic hind limb extension involves the loss of postural control and rapid movement of all four limbs followed by downward extension of the limbs parallel to the body.
as §2

Data set [3] has as its system picrotoxin-induced seizures in male Crl:CF1 mice. The experiment in a line: Picrotoxin seizure induction. It is filed as in vivo, mouse. On the procedure:
as §1
Seizure induction paradigms and analyses. Picrotoxin seizure induction—15 minutes prior to i.p. injection of picrotoxin (10 mg/kg, Sigma Aldrich), mice were administered vehicle or compound B (n=12 per group). Latencies to the first myoclonic jerk, forelimb clonus, and generalized tonic-clonic seizure were compared between compound B and vehicle-treated mice. The myoclonic jerk is characterized by a sudden jerk of the upper body whereas forelimb clonus involves rapid movement of the forelimbs for at least 5s. Finally, the generalized tonic-clonic seizure involves the loss of postural control with rapid movement of the limbs for at least 5s.
as §2

The next data set concerns the target T4, hNav1.6 (Homo sapiens, UniProt Q9UQD0).
T4 construct: host or cells: Xenopus oocytes (cRNA injection)
As to the kind of experiment: Two-electrode voltage-clamp recording of hNav1.6 gating in Xenopus oocytes. The note with it: for Activation (V1/2): hNav1.6, 100 μM drug, DMSO control −26.7 ± 1.1 mV; for Inactivation (V1/2): hNav1.6, steady-state inactivation, 100 μM drug, DMSO control −65.1 ± 0.8 mV. It is filed as cell-based.

A further data set addresses T5, hNav1.3 (Homo sapiens, UniProt Q9NY46).
T5 construct: host or cells: Xenopus oocytes (cRNA injection)
The experiment in a line: Two-electrode voltage-clamp recording of hNav1.3 gating in Xenopus oocytes. The format is cell-based. The note with it: for Activation (V1/2): hNav1.3, 100 μM drug, DMSO control −24.7 ± 1.6 mV; for Inactivation (V1/2): hNav1.3, steady-state inactivation, 100 μM drug, DMSO control −52.8 ± 0.9 mV.

For data set [4] the following is noted: cited from earlier work.

T2 sequence (P14867 28-456): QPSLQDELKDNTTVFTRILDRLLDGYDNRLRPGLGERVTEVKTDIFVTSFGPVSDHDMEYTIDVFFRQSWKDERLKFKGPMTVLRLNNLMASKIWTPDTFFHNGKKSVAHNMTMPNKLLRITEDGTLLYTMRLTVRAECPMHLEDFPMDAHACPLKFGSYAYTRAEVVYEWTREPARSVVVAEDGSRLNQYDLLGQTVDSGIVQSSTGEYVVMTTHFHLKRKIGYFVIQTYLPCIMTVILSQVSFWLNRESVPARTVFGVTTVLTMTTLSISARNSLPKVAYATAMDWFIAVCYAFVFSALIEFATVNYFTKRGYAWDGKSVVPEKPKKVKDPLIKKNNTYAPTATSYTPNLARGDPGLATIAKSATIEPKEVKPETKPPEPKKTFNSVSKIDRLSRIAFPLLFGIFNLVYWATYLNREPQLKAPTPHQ
T2 sequence (P47870 25-512 limits assumed): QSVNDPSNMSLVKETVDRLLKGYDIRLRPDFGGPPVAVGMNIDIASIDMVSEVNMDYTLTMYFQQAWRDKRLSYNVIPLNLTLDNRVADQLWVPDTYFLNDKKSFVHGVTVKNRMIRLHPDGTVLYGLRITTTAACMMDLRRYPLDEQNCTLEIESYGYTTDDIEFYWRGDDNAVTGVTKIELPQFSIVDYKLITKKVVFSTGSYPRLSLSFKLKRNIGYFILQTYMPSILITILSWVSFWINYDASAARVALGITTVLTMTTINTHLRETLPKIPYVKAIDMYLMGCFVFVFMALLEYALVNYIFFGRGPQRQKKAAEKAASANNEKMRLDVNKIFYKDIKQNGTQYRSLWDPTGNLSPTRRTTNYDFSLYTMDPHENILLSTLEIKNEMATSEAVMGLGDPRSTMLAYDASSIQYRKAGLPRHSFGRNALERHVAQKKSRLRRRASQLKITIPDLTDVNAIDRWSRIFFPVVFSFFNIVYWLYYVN
T2 sequence (P18507 40-475): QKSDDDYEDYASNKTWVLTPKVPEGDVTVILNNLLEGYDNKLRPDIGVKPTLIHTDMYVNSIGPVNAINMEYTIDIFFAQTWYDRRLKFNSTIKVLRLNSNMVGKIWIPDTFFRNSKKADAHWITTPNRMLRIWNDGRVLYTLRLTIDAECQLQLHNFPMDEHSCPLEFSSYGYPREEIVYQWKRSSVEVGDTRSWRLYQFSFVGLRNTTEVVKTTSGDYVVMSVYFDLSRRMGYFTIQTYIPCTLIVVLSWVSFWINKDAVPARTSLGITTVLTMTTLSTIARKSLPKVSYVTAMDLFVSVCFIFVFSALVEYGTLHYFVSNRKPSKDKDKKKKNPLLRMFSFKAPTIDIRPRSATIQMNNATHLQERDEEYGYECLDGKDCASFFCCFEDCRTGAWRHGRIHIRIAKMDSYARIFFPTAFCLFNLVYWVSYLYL

Turning to `NC(=O)c1nnn(Cc2cccc(F)c2)c1N` [Compound A, 1-[(3-fluorophenyl)methyl]-1H-1,2,3-Triazole-4-carboxamide-5-amine], on hNav1.1, the “effect on hNav1.1 persistent current” value was “neither of these compounds influences”, the “effect on hNav1.1 opening (G-V relationship)” value (“effect on hNav1.1 opening” below) is on record as “clearly inhibit hNav1.1 opening”, the “Activation (V1/2)” value is reported as −30.8 ± 1.0 mV and the “Inactivation (V1/2)” value is on record as −50.5 ± 1.2 mV.
As for `Cc1c(C(N)=O)nnn1Cc1ccccc1` [Compound B, 1-[phenyl-methyl]-1H-1,2,3-Triazole-4-carboxamide-5-methyl], the “animals exhibiting behavioral seizures” value in data set [1] (75 mg/kg ip, n=7/24, vehicle 92%) was found to be 29%. Also, in data set [1] (p<0.0001), the “seizure severity (modified Racine scale) vs vehicle” value is recorded as “dramatically less severe”. The “reduction in the number of mice exhibiting seizures” value in data set [1] (vs vehicle, p<0.0001) came out at 63%. Further, the “activation of α1/β2/γ2 GABAA receptor (inward currents)” value at α1/β2/γ2 GABAA receptor was “do not activate”. Also, the “Activation (V1/2)” value at hNav1.2 is listed as −23.6 ± 1.1 mV; on hNav1.6 it was −23.8 ± 1.9 mV; on hNav1.1, −27.4 ± 1.0 mV; at hNav1.3, −25.8 ± 1.4 mV. Also, the “Inactivation (V1/2)” value on hNav1.2 is −53.6 ± 1.2 mV; on hNav1.6, −62.6 ± 0.7 mV; at hNav1.1, −49.4 ± 0.3 mV; on hNav1.3, −50.0 ± 0.8 mV. Moreover, the “average action potential (firing) threshold” value with rat hippocampal neurons (potential at which rate of rise crosses 40 V/s, control −43.3±2.4 mV) is listed as −27.8±1.6 mV. Also, the “current injection needed to elicit an action potential” value in the data set on rat hippocampal neurons (control 20 pA) is given as 80 pA. Besides, the “increase of average latency to GTCS+ vs vehicle” value in data set [2] (p<0.0001) is on record as 56%. Also, the “increase of average latency to first GTCS vs vehicle” value in data set [2] (p<0.0001) was found to be 43%; in data set [3] (picrotoxin, 75 mg/kg ip, p=0.03), 41%. Also, the “average latency to the MJ vs vehicle” value in data set [2] (p=0.6) is “comparable”. Besides, in data set [2] (vehicle 281±19 s), the “average latency to the first GTCS” value was found to be 652 ± 48 s. Further, the “average latency to GTCS with hind limb extension (GTCS+)” value in data set [2] (vehicle 652±38 s) turned out to be 1155 ± 89 s. For the same compound, the “average latency to the first generalized tonic-clonic seizure (GTCS)” value in data set [3] (picrotoxin 10 mg/kg, Compound B 75 mg/kg ip 15 min before, vehicle 1006±106 s) stood at 1693 ± 315 s. For the same compound, the “frequency of the behavioral seizures vs vehicle” value in data set [3] (picrotoxin, 75 mg/kg ip) is “no difference”. In addition, the “average latency to forelimb clonus (FC) vs vehicle” value in data set [3] (picrotoxin, 75 mg/kg ip, p=0.3) is recorded as “no statistically significant differences”. Further, in [3] (picrotoxin, 75 mg/kg ip, p=0.4), the “average latency to the first myoclonic jerk (MJ) vs vehicle” value was “no statistically significant differences”. The “effect on hNav1.1 persistent current” value on hNav1.1 is listed as “neither of these compounds influences”; at hNav1.1 (listed as compound B), “did not alter”. Besides, the “effect on hNav1.1 opening” value at hNav1.1 is listed as “clearly inhibit hNav1.1 opening”. The “depolarizing shift in channel activation voltage” value on hNav1.1 (hNav1.1, 100 μM) is reported as “~+11 mV”. The “Entry into SI (t)” value on hNav1.1 (hNav1.1 slow inactivation, time-dependence of entry, DMSO 5.6 ± 0.3 s) is 5.5 ± 0.4 s. In addition, the “Voltage-dependence of SI (V), V1/2” value on hNav1.1 (hNav1.1 slow inactivation, DMSO −43.7 ± 1.6 mV) is reported as −43.2 ± 1.3 mV.
For the compound `OCc1cn(Cc2cccc(F)c2)nn1` [Compound C, 1-[(3-fluorophenyl)methyl]-1H-1,2,3-Triazole-4-hydroxymethyl], on hNav1.1, the “effect on hNav1.1 opening” value is “no longer affects hNav1.1 opening”, the “Activation (V1/2)” value is reported as −38.4 ± 1.3 mV and the “Inactivation (V1/2)” value was −49.2 ± 0.6 mV.
In the same order, the values of `NC(=O)c1nnn(Cc2ccc(F)cc2)c1N` [Compound D, 1-[(4-fluorophenyl)methyl]-1H-1,2,3-Triazole-4-carboxamide-5-amine] are “not significant”, −32.5 ± 2.3 mV and −49.8 ± 1.6 mV.
As to `NC(=O)c1cn(Cc2c(F)cccc2F)nn1` [Rufinamide, 1-[(2,6-difluorophenyl)methyl]-1H-1,2,3-Triazole-4-carboxamide, reference compound], the “activation of α1/β2/γ2 GABAA receptor (inward currents)” value at α1/β2/γ2 GABAA receptor is “do not activate”. Further, at hNav1.2, the “Activation (V1/2)” value is −29.5 ± 1.2 mV and the “Inactivation (V1/2)” value is −57.7 ± 0.5 mV. At hNav1.6, the “Activation (V1/2)” value is given as −28.1 ± 0.8 mV and the “Inactivation (V1/2)” value is recorded as −60.0 ± 0.7 mV. The “alteration of the midpoint of hNav1.6 channel availability” value on hNav1.6 (hNav1.6, 100 μM rufinamide) is reported as “about +5 mV”. In addition, the “solubility in DMSO” value in [4] (DMSO) is listed as “up to 9 mg/ml”. Besides, the solubility in water result in data set [4] (water) is reported as “slightly soluble”. Besides, at hNav1.1, the “effect on hNav1.1 persistent current” value is listed as “did not alter”, the “effect on hNav1.1 opening” value is recorded as “dramatic depolarizing shift” and the “Activation (V1/2)” value was −30.6 ± 0.9 mV. Further, on hNav1.3, the “Activation (V1/2)” value is given as −24.5 ± 2.4 mV and the “Inactivation (V1/2)” value is −52.6 ± 1.6 mV.
